Assay results taken from ChEMBL document CHEMBL4052743, “Oxindole-based intraocular pressure reducing agents” (Bioorg Med Chem Lett, 2017).
pIC50, pKi: −log10 of the molar value. The source made the active and inactive calls. The calls are words filed in the database; no cut-off is given here.

Key:
Oryctolagus cuniculus [1] = organism: Oryctolagus cuniculus; assay: (§1) Reduction in intraocular pressure in Chinchilla rabbit assessed as maximum effective time required for reduction of intraaocular pressure at 0.1% after application of one drop (0.06 ml) of solution containing active compound/vehicle every hour (during 6 hours and after 24 hours) and measured after 24 hrs post dose by automatic tonometry; type: functional
Oryctolagus cuniculus [2] = organism: Oryctolagus cuniculus; assay: as §1, with “hours)” for “hours) and measured after 24 hrs post dose”; type: functional
[3] = Toxicity in rat; settings: in vivo
Oryctolagus cuniculus [4] = organism: Oryctolagus cuniculus; assay: Reduction in intraocular pressure in Chinchilla rabbit assessed as maximal change in intraocular pressure at 0.1% after application of one drop (0.06 ml) of solution containing active compound/vehicle every hour (during 6 hours and after 24 hours) by automatic tonometry; type: functional; parameters: scale not given: the % may be the effect or the level left
[5] = biological target: T1, Ribosyldihydronicotinamide dehydrogenase [quinone] (Homo sapiens, UniProt P16083); assay: Inhibition of QR2 (unknown origin) using MTT and NMeH as substrates
T1 sequence (P16083 whole entry): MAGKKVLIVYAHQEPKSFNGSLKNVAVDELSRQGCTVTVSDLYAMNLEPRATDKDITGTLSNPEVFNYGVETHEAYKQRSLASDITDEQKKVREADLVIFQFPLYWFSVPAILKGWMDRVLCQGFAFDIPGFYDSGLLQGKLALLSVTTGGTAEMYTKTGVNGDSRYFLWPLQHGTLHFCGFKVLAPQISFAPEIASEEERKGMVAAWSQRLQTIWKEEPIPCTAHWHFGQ

[6] = biological target: T2, Ribosyldihydronicotinamide dehydrogenase [quinone] (Homo sapiens) (UniProt P16083); assay: Inhibition of QR2 (unknown origin) using MTT and NMeH as substrates relative to control
T2 sequence (whole entry): T1 sequence (P16083 whole entry)

Oryctolagus cuniculus [7] = organism: Oryctolagus cuniculus; assay: Reduction in intraocular pressure in Chinchilla rabbit assessed as maximal change in intraocular pressure at 1% after application of one drop (0.06 ml) of solution containing active compound/vehicle every hour (during 6 hours and after 24 hours) by applanation tonometry; type: functional
Oryctolagus cuniculus [8] = organism: Oryctolagus cuniculus; assay: Reduction in intraocular pressure in Chinchilla rabbit assessed as maximal change in intraocular pressure at 0.1% after application of one drop (0.06 ml) of solution containing active compound/vehicle every hour (during 6 hours and after 24 hours) by applanation tonometry; type: functional; parameters: scale not given: the % may be the effect or the level left
Oryctolagus cuniculus [9] = organism: Oryctolagus cuniculus; assay: as §1, with “hours)” for “hours) and measured after 24 hrs post dose”, “applanation” for “automatic”; type: functional
[10] = Solubility in water; type: physicochemical; settings: buffer
Oryctolagus cuniculus [11] = organism: Oryctolagus cuniculus; assay: as §1, with “measured after 6 hrs post” for “measured after 24 hrs post”; type: functional
[12] = Inhibition of MT-3 (unknown origin); parameters: species or system Homo sapiens
Oryctolagus cuniculus [13] = assay: Reduction in intraocular pressure in New Zealand white rabbit at 100 mg/10 ml dosed via topical route measured after 0.5 to 6 hrs post dose by tonometry; type: functional; parameters: scale not given: the % may be the effect or the level left
[14] = Binding affinity to MT-3 (unknown origin); parameters: species or system Homo sapiens
Oryctolagus cuniculus [15] = organism: Oryctolagus cuniculus; assay: Reduction in intraocular pressure in Chinchilla rabbit assessed as maximal change in intraocular pressure at 0.5% after application of one drop (0.06 ml) of solution containing active compound/vehicle every hour (during 6 hours and after 24 hours) by applanation tonometry; type: functional

Row | Compound | Activity (Oryctolagus cuniculus [1]) | Time (Oryctolagus cuniculus [2]) | LD50 [3] | Activity (Oryctolagus cuniculus [4]) | other results
1 | CC(=O)Nc1ccc2c(c1)C(O)(CC(=O)O)C(=O)N2 (stereo not drawn) | inactive | 2 h | > 2400 mg/kg | 18% | 
2 | CC(=O)Nc1ccc2c(c1)C(CC#N)C(=O)N2C (stereo not drawn) | inactive | inactive | > 2400 mg/kg | inactive | 
3 | CC(=O)NCCc1cn(C)c2c(C)c(C)ccc12 | inactive | inactive | > 2400 mg/kg | inactive | pIC50 [5]: 5.35; Imax [6]: 97.4%
4 | COc1ccc2[nH]cc(CCNC(C)=O)c2c1 [MELATONIN] | inactive | 3 h |  | 26 - 31% | Activity (Oryctolagus cuniculus [7]): inactive; Activity (Oryctolagus cuniculus [8]): 12%; Time (Oryctolagus cuniculus [9]): 4 h
5 | CC(=O)NCCC1C(=O)Nc2ccc(NC(C)=O)cc21 (stereo not drawn) | inactive | inactive | > 2400 mg/kg | inactive | 
6 | COc1ccc2c(c1)C1(C(=O)N2)C2CCC(C2)C1CNC(C)=O (stereo not drawn) | inactive | inactive | > 2400 mg/kg | inactive | pIC50 [5]: 4.20; Imax [6]: 59.6%
7 | COc1ccc2[nH]c(Cl)c(CCNC(C)=O)c2c1 | inactive | inactive | > 2400 mg/kg | inactive | pIC50 [5]: 4.89; Imax [6]: 91%
8 | CCC(=O)Nc1cc(NC(=O)CC)c2c(c1)C(CC#N)(OC(=O)CC)C(=O)N2 (stereo not drawn) | inactive | 2 h | > 2400 mg/kg | 15% | 
9 | CC(=O)Nc1ccc2c(c1)C(CC(=O)O)C(=O)N2 (stereo not drawn) |  | 4 h | > 2400 mg/kg | 41% | solubility [10]: Soluble; Activity (Oryctolagus cuniculus [11]): Active
10 | COC(=O)Nc1ccc2[nH]cc(CCNC(C)=O)c2c1 |  |  |  |  | pIC50 [12]: 7.24; Activity (Oryctolagus cuniculus [13]): 45%; pKi [14]: 7.19
11 | COc1cc(NC(C)=O)c2c(c1)C(CC#N)(OC(C)=O)C(=O)N2 (stereo not drawn) | inactive | 2 h | > 2400 mg/kg | 18% | 
12 | CC(=O)Nc1cccc2c1NC(=O)C2CC#N (stereo not drawn) | inactive | inactive | > 2400 mg/kg | inactive | 
13 | CC(=O)Nc1ccc2c(c1)C(O)(CC#N)C(=O)N2 (stereo not drawn) | inactive | inactive | > 2400 mg/kg | inactive | 
14 | CCOC(=O)C(C(=O)O)C1C(=O)Nc2ccc(OC)cc21 (stereo not drawn) | inactive | 4 h | > 2400 mg/kg | 18% | 
15 | CCC(=O)Nc1cc(NC(=O)CC)c2c(c1)C(O)(CC#N)C(=O)N2 (stereo not drawn) | inactive | 4 h | > 2400 mg/kg | 29% | 
16 | CC(=O)NCCC1C(=O)Nc2ccc(Br)cc21 (stereo not drawn) | inactive | inactive | > 2400 mg/kg | inactive | pIC50 [5]: 4.72; Imax [6]: 29.9%
17 | COc1ccc2c(c1)C1(CC1CNC(C)=O)C(=O)N2C (stereo not drawn) | inactive | 2 h | > 2400 mg/kg | 10% | pIC50 [5]: 5.29; Imax [6]: 93.9%
18 | CC(=O)Nc1ccc2c(c1)C(CC#N)C(=O)N2 (stereo not drawn) | inactive | 4 h | > 2400 mg/kg | 22% | 
19 | N#CCC1C(=O)Nc2ccc(Br)cc21 (stereo not drawn) | inactive | inactive | > 2400 mg/kg | inactive | 
20 | CC(C)(C)NC[C@H](O)COc1nsnc1N1CCOCC1 [TIMOLOL] | inactive | 4 h |  | 32% | Activity (Oryctolagus cuniculus [8]): 11%; Time (Oryctolagus cuniculus [9]): 3 h
21 | CC(=O)NCCC1(O)C(=O)Nc2ccc(NC(C)=O)cc21 (stereo not drawn) | inactive | inactive | > 2400 mg/kg | inactive | 
22 | CC(=O)Nc1cc(NC(C)=O)c2c(c1)C(CC#N)(OC(C)=O)C(=O)N2 (stereo not drawn) | inactive | 2 h | > 2400 mg/kg | 21% | Activity (Oryctolagus cuniculus [7]): inactive; Activity (Oryctolagus cuniculus [15]): Active
23 | COc1ccc2c(c1)c(CCNC(C)=O)cn2C | inactive | 2 h | > 2400 mg/kg | 8% | pIC50 [5]: 5.24; Imax [6]: 102%
24 | COc1ccc2c(c1)C(CC#N)C(=O)N2 (stereo not drawn) | inactive | inactive | > 2400 mg/kg | inactive | 
